In brackets after ≈: the same amount, converted by molar mass.
How the values were obtained:
Test in all cases: MIC, broth microdilution (NCCLS M7-A5)
Format in all cases: cell-based
[1] = tested on: S. epidermidis - ATCC 700578; settings: S. epidermidis - ATCC 700578; Table 3
Experimental: (§1) Minimum inhibitory concentrations (MICs) are determined according to the National Committee for Clinical Laboratory Standards (NCCLS) susceptibility test guideline M7-A5 (Ferraro, M. 2001 Methods for Dilution Antimicrobial Susceptibility Tests for Bacteria that Grow Aerobically; Approved Standard (NCCLS). National Committee for Clinical Laboratory Standards (NCCLS), Villanova) to quantify the antimicrobial activity of the compounds of the present embodiment against various pathogenic bacteria. Susceptibility testing is performed by broth microdilution in accordance with National Committee for Clinical Laboratory Standards (NCCLS) guidelines. This procedure entails combining the test compounds with a standardized number of cells, incubating at the temperature and amount of time appropriate for each particular organism, and visually scoring the concentration at which no growth was apparent in the test wells. The panel includes both drug sensitive and drug resistant isolates of both gram-positive and gram-negative bacteria, including: S. aureus (both MSSA and MRSA), S. pneumoniae (wild type and penicillin-resistant), vancomycin-sensitive E. faecalis, vancomycin-resistant E. faecium, E. coli, H. influenzae and P. aeruginosa.
(§2) Susceptibility testing was performed by broth microdilution in accordance with National Committee for Clinical Laboratory Standards (NCCLS) guidelines. Antimicrobial data for compounds of Formulae II, III, IV, VI, VII, VIII, IX, XII, XIII, XIV, XV′, XV, XVI, XVII, XVIII, XXI′, XXII, XXIII, XXIV, and XXV are shown in Tables 3, 4 and 5.

[2] = tested on: S. epidermidis - ATCC 700582; settings: S. epidermidis - ATCC 700582; Table 3
Experimental: as §1, §2

E. coli - ATCC 25922 = settings: Table 3
Experimental: as §1, §2

E. coli - imp = settings: E. coli - imp; Table 3
Experimental: as §1, §2

[3] = tested on: E. faecium - Van^r (VRE 700221); settings: E. faecium - Van^r; Table 3
Experimental: as §1, §2

[4] = tested on: H. influenzae - ATCC 49247; settings: H. influenzae - ATCC 49247; Table 3
Experimental: as §1, §2

[5] = tested on: H. influenzae - ATCC 49766; settings: H. influenzae - ATCC 49766; Table 3
Experimental: as §1, §2

S. aureus - MRSA (43300) = settings: S. aureus - MRSA; Table 3
Experimental: as §1, §2

S. aureus - MSSA (29213) = settings: S. aureus - MSSA; Table 3
Experimental: as §1, §2

[6] = tested on: S. pneumoniae - penicillin resistant (51915); settings: S. pneumoniae - penicillin resistant; Table 3
Experimental: as §1, §2

[7] = tested on: S. pneumoniae - penicillin sensitive (49619); settings: S. pneumoniae - penicillin sensitive; Table 3
Experimental: as §1, §2

[8] = tested on: E. faecalis - Van^s (VSE 29212); settings: E. faecalis - Van^s; Table 3
Experimental: as §1, §2

## Clc1cc2[nH]cc(-c3c[nH]cc3-c3c[nH]c4cc(Cl)c(Cl)cc34)c2cc1Cl [IV]
[1]
  MIC: 1 µg/mL (≈ 2.3 µM)
[2]
  MIC: 1 µg/mL (≈ 2.3 µM)
E. coli - ATCC 25922
  MIC: >32 µg/mL
E. coli - imp
  MIC: 6 µg/mL (≈ 13.8 µM)
[3]
  MIC: 2 µg/mL (≈ 4.6 µM)
[4]
  MIC: 4 µg/mL (≈ 9.19 µM)
[5]
  MIC: 6 µg/mL (≈ 13.8 µM)
S. aureus - MRSA (43300)
  MIC: 1.5 µg/mL (≈ 3.45 µM)
S. aureus - MSSA (29213)
  MIC: 1.1 µg/mL (≈ 2.53 µM)
[6]
  MIC: 20 µg/mL (≈ 46 µM)
[7]
  MIC: 20 µg/mL (≈ 46 µM)
[8]
  MIC: 2.5 µg/mL (≈ 5.75 µM)
